Type in all cases: cell-based, human
In test [1] the test system is MDA-MB-231 cells. In words: Transwell Matrigel cell invasion assay, LPS-induced, MDA-MB-231 cells. The conditions noted are these: LPS 1 μM + rosoxacin 1 μM, 24 hours, compared with control group M2 (LPS only), FIG. 2. An excerpt: Human breast cancer cell line MDA-MB-231 (ATCC HTB-26) was purchased from American Type Culture Collection (ATCC, Manassas, Va., USA).
The HMB cells prepared in section 1 of “General Experimental Materials” were divided into 8 groups, namely, two control groups (i.e., control groups H1 and H2), one experimental group (i.e., experimental group H), and five comparative groups (i.e., comparative groups H1 to H5). In addition, the MDA-MB-231 cells prepared in section 1 of “General Experimental Materials” were divided into three groups, namely, two control groups (i.e., control groups M1 and M2) and one experimental group (i.e., experimental group M). […]
Subsequently, the culture medium in each Transwell® insert was removed, and the respective Transwell® insert was washed with phosphate-buffered saline (PBS). […] The number of the stained cells was counted under a Leica DMI3000 B inverted microscope (Leica Microsystems, Wetzlar, Germany) at 100× magnification, followed by analysis using Image-Pro Software (version 6.0).
The cell invasion percentage (%) of each group was calculated by substituting the thus obtained number of stained cells into the following Equation (I): […]
(§1) The data thus obtained were analyzed according to the method described in section 1 of “General Procedures”.

Test [2] has as its system highly metastatic breast cancer cell line (HMB cells). Briefly: Transwell Matrigel cell invasion assay, LPS-induced, HMB cells. The conditions noted are these: LPS 1 μM + quinolone antibiotic 1 μM, 24 hours, compared with control group H2 (LPS only), FIG. 1. The procedure:
(§2) In addition, the highly metastatic breast cancer cell line (abbreviated as HMB cells) used in the following experiments was obtained according to the following preparation processes: the MDA-MB-231 cells (2.5×10^6 cells) were injected into the mammary fat pad of a severe combined immune deficient (SCID) mice (purchased from BioLasco Taiwan Co., Ltd; 4 weeks old, with a body weight of approximately 20 g), and the triple-negative breast cancer cells metastasized to the lung of the SCID mice were harvested after 12 weeks. Next, the triple-negative breast cancer cells (2.5×10^6 cells) thus obtained were injected into the mammary fat pad of another SCID mice, and the HMB cells metastasized to the lung of the another SCID mice were harvested after 8 weeks.
The HMB cells prepared in section 1 of “General Experimental Materials” were divided into 8 groups, namely, two control groups (i.e., control groups H1 and H2), one experimental group (i.e., experimental group H), and five comparative groups (i.e., comparative groups H1 to H5). In addition, the MDA-MB-231 cells prepared in section 1 of “General Experimental Materials” were divided into three groups, namely, two control groups (i.e., control groups M1 and M2) and one experimental group (i.e., experimental group M).
Each group of the cells was seeded at a concentration of 1×10^5 cells per well into respective permeable Transwell® insert (Corning Inc.) for a 24-well plate.
Thereafter, the Transwell® inserts were placed into the 24-well plate that contained 0.6 mL of DMEM supplemented with 10% FBS in each well, followed by cultivation in a humidified incubator (37° C., 5% CO2, 95% relative humidity) for 24 hours.
Subsequently, the culture medium in each Transwell® insert was removed, and the respective Transwell® insert was washed with phosphate-buffered saline (PBS). The cells migrating through the polycarbonate membrane and attaching to the bottom side of the polycarbonate membrane were subjected to a fixation treatment with a 4% formaldehyde solution (in PBS) at room temperature for 15 minutes. Then, the non-migrating cells were removed using a cotton swab, followed by conducting staining using a 1% crystal violet solution according to techniques well-known to those skilled in the art. The number of the stained cells was counted under a Leica DMI3000 B inverted microscope (Leica Microsystems, Wetzlar, Germany) at 100× magnification, followed by analysis using Image-Pro Software (version 6.0).
The cell invasion percentage (%) of each group was calculated by substituting the thus obtained number of stained cells into the following Equation (I):
[formula] • where A=cell invasion percentage (%) • B=number of stained cells in respective group • C=number of stained cells in the control group H1 or the control group M1
as §1

For test [3] the test system is unchanged. Briefly: Tumor-sphere formation assay, LPS-induced, HMB cells. The conditions noted are these: LPS 1 μM + rosoxacin 1 μM, 21 days, compared with control group H2 (LPS only), FIG. 3. Here is the method:
as §2
The sphere formation medium used in this example was prepared by supplementing Gibco DMEM/F-12 medium with the ingredients shown in Table 3.
The HMB cells prepared in section 1 of “General Experimental Materials” were divided into three groups, namely, two control groups (i.e., control groups H1 and H2) and one experimental group (i.e., experimental group H). […]
The number of tumor spheres was counted under a Leica DMI3000 B inverted microscope (Leica Microsystems, Wetzlar, Germany) at 100× magnification.
as §1

These results are taken from patent US20240207245A1, “METHOD FOR INHIBITING METASTASIS OF TRIPLE-NEGATIVE BREAST CANCER USING ROSOXACIN” (National Yang Ming Chiao Tung University, priority 2022, published 2024).

As to `CCn1cc(C(=O)O)c(=O)c2ccc(-c3ccncc3)cc21` [rosoxacin, 1-ethyl-4-oxo-7-(4-pyridyl)-1,4-dihydroquinoline-3-carboxylic acid], the cell invasion percentage entry in test [1] is on record as “significantly lower than that determined in the control group M2”; in test [2], “significantly lower than that determined in the control group H2”. Also, in test [3], the “number of tumor spheres” value is listed as “significantly lower than that determined in the control group H2”. As for `COc1c(N2CCNC(C)C2)c(F)cc2c(=O)c(C(=O)O)cn(C3CC3)c12` (stereo not shown) [Gatifloxacin], the cell invasion percentage entry in test [2] is “substantially similar to that determined in the control group H2”. With `C[C@H]1NCc2cc(-c3ccc4c(=O)c(C(=O)O)cn(C5CC5)c4c3OC(F)F)ccc21` [Garenoxacin], in test [2], the cell invasion percentage result is reported as “substantially similar to that determined in the control group H2”.

As for `NC1CCN(c2c(F)cc3c(=O)c(C(=O)O)cn(C4CC4)c3c2Cl)C1` (stereo not shown) [Clinafloxacin], the cell invasion percentage entry in test [2] is on record as “significantly higher than that determined in the control group H2”. In the case of `CCn1cc(C(=O)O)c(=O)c2cc(F)c(N3CCNCC3)cc21` [Norfloxacin], the cell invasion percentage entry in test [2] was “substantially similar to that determined in the control group H2”.
